From ChEMBL document CHEMBL6083208, “Integrating amino acids into Bcr-Abl inhibitors: design, synthesis, biological evaluation, and in silico studies” (RSC Med Chem, 2024)

What was measured:
Bcr/Abl fusion protein = Bcr/Abl fusion protein (Homo sapiens, UniProt P00519); experiment: Inhibition of wild type Bcr-Abl (unknown origin) using Abltide as substrate incubated for 1 hr by luminescence based ADP-glo assay; type: protein assay
K562 = experiment: cells; settings: Homo sapiens, K562, 48 h
BaF3 [1] = experiment: Antiproliferative activity against mouse BaF3 cells harbouring Bcr-Abl T315I assessed of cell viability at 30 uM incubated for 72 hrs by Celltiter-glo luminescent cell viability assay relative to control; type: functional
HEK293 = experiment: Antiproliferative activity against HEK293 cells after 48 hrs by MTT assay; type: toxicity, cell-based; parameters: concentration or dose not given beside the values; settings: human, hek293, 48 h
THP-1 = experiment: Antiproliferative activity against human THP-1 cells after 48 hrs by MTT assay; type: functional; parameters: concentration or dose not given beside the values
[2] = Inhibition of Bcr-Abl T315Ialpha mutant (unknown origin) using Abltide as substrate incubated for 1 hr by luminescence based ADP-glo assay; parameters: species or system Homo sapiens
BaF3 [3] = experiment: Antiproliferative activity against mouse BaF3 cells harbouring Bcr-Abl T315I assessed of cell viability at 10 uM incubated for 72 hrs by Celltiter-glo luminescent cell viability assay relative to control; type: functional
BaF3 [4] = experiment: Antiproliferative activity against mouse BaF3 cells harbouring Bcr-Abl T315I assessed of cell viability at 2 uM incubated for 72 hrs by Celltiter-glo luminescent cell viability assay relative to control; type: functional

Chain of Bcr/Abl fusion protein (P00519 whole entry, the tested form may be a part): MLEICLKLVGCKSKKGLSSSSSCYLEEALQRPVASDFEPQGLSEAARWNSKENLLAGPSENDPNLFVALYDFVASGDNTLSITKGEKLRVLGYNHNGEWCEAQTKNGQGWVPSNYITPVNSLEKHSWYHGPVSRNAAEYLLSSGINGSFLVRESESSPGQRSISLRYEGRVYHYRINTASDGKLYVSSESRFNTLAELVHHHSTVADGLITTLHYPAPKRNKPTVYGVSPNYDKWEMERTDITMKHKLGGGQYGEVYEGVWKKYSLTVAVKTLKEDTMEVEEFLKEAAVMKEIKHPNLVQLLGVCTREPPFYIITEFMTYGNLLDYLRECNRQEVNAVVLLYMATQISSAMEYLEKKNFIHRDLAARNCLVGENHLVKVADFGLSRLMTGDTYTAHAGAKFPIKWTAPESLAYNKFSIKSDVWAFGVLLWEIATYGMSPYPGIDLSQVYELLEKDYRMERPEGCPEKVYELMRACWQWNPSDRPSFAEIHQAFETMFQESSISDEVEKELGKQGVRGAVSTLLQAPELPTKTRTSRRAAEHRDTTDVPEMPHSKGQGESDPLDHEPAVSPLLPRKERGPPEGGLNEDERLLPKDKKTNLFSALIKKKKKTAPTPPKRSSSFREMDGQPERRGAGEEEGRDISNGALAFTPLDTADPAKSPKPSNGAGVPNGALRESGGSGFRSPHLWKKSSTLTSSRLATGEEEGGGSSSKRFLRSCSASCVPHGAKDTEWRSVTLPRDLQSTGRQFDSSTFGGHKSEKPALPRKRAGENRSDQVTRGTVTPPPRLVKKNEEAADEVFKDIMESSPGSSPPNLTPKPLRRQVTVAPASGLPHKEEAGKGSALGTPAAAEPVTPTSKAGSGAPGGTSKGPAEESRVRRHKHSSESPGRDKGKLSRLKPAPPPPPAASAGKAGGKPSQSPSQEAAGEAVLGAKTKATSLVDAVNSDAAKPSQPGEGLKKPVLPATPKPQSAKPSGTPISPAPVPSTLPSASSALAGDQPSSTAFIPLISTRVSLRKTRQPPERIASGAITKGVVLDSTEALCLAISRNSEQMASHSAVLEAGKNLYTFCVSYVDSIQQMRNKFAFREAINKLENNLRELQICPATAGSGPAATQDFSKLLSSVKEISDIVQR
Chain of Bcr/Abl fusion protein (P11274 whole entry, further chain, the tested form may be a part): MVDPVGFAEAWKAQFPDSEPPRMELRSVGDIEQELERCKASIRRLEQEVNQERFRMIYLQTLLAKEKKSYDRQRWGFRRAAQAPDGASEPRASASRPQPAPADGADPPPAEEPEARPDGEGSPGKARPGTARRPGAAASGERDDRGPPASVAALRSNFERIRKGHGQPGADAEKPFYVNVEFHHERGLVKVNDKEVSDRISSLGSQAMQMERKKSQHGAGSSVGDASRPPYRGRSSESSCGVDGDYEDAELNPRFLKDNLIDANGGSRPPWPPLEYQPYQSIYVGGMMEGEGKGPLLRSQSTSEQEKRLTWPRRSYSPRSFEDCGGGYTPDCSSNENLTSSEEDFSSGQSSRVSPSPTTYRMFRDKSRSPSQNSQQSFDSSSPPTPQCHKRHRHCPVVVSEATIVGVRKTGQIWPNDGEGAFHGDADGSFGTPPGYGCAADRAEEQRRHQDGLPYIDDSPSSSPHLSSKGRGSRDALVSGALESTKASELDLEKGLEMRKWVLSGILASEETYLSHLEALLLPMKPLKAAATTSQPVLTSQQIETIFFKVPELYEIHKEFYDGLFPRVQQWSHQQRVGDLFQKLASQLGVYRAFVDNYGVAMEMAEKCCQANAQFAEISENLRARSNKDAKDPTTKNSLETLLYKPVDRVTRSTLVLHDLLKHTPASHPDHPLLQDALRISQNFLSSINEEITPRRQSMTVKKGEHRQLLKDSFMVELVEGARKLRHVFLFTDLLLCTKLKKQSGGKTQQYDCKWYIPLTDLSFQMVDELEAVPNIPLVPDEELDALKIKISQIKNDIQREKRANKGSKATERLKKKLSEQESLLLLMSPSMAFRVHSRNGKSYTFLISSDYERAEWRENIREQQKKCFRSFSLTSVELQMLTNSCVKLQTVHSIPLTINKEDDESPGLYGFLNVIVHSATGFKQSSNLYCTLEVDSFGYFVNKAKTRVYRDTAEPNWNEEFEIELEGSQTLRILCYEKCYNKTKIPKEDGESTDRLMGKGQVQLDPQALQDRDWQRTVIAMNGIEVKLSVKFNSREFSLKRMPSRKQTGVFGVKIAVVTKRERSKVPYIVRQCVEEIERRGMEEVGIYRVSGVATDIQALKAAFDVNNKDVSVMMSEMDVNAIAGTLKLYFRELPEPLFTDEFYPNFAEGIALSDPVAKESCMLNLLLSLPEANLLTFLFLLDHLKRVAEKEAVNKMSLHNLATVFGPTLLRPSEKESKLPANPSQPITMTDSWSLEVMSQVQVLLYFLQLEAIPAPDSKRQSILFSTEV

Row | IC50 (Bcr/Abl fusion protein) [nM] | IC50 (K562) [nM] | IC50 [2] [nM] | Compound | inhibition at 30 µM (BaF3 [1]) [%] | Activity (HEK293) [%] | Activity (THP-1) [%] | inhibition at 10 µM (BaF3 [3]) [%] | inhibition at 2 µM (BaF3 [4]) [%]
1 | 8.61 | 1.26 | 436 | CC(C)(C)OC[C@H](NC(=O)c1cccc(-c2ccc(NC(=O)C(C)(C)C)nc2)c1)C(=O)Nc1ccc(Cl)c(C(F)(F)F)c1 | -5.67 | 72 | 73 | – | –
2 | 34 | 8.47 | 207 | CC(C)(C)[C@H](NC(=O)c1cccc(-c2cncc(C(=O)NC3CC3)c2)c1)C(=O)Nc1ccc(Cl)c(C(F)(F)F)c1 | – | 90 | 100 | 65.6 | 7.2
3 | 0.33 | 0.13 | 87 | CS(=O)(=O)Nc1cc(-c2ccc(C(=O)N[C@@H](CO)C(=O)Nc3ccc(Cl)c(C(F)(F)F)c3)cc2)ccn1 | 5.71 | 78 | 87 | – | –
4 | 5.46 | 6.26 | 144 | CCN(CC)C(=O)c1cncc(-c2ccc(C(=O)N[C@@H](COC(C)(C)C)C(=O)Nc3ccc(Cl)c(C(F)(F)F)c3)cc2)c1 | 35 | 73 | 100 | – | –
5 | – | 0.049 | – | Cc1ccc(C(=O)Nc2ccc(CN3CCN(C)CC3)c(C(F)(F)F)c2)cc1C#Cc1cnc2cccnn12 [PONATINIB] | – | 55 | 3 | – | –
6 | 7.26 | 10.1 | 165 | CC(=O)Nc1ccc(-c2cccc(C(=O)N[C@H](C(=O)Nc3ccc(Cl)c(C(F)(F)F)c3)C(C)(C)C)c2)cn1 | – | 86 | 100 | 100 | 7.81
7 | 16.8 | 5.36 | 481 | CC(C)(C)C(=O)Nc1cc(-c2ccc(C(=O)N[C@H](C(=O)Nc3ccc(Cl)c(C(F)(F)F)c3)C(C)(C)C)cc2)ccn1 | 8.24 | 87 | 94 | – | –
8 | 0.24 | 0.36 | 99 | Nc1cc(-c2ccc(C(=O)N[C@@H](CO)C(=O)Nc3ccc(Cl)c(C(F)(F)F)c3)cc2)ccn1 | -3.39 | 83 | 100 | – | –
9 | 7.29 | 4.86 | 504 | CC(C)(C)C(=O)Nc1ccc(-c2cccc(C(=O)N[C@@H](CO)C(=O)Nc3ccc(Cl)c(C(F)(F)F)c3)c2)cn1 | – | 100 | 77 | 96.8 | 0.99
10 | 1.35 | 2.79 | 348 | O=C(NC1CC1)c1cncc(-c2cccc(C(=O)N[C@@H](CO)C(=O)Nc3ccc(Cl)c(C(F)(F)F)c3)c2)c1 | 66.1 | 99 | 72 | – | –
11 | 1.11 | 1.68 | 60 | O=C(NC1CC1)c1cncc(-c2ccc(C(=O)N[C@@H](CO)C(=O)Nc3ccc(Cl)c(C(F)(F)F)c3)cc2)c1 | 82.5 | 89 | 58 | – | –
12 | 0.27 | 12.2 | 261 | CCN(CC)C(=O)c1cncc(-c2ccc(C(=O)N[C@@H](CO)C(=O)Nc3ccc(Cl)c(C(F)(F)F)c3)cc2)c1 | -1.59 | 74 | 100 | – | –
13 | 3.57 | 4.92 | 295 | CCN(CC)C(=O)c1cncc(-c2cccc(C(=O)N[C@@H](CO)C(=O)Nc3ccc(Cl)c(C(F)(F)F)c3)c2)c1 | 53.2 | 84 | 75 | – | –
14 | 11.4 | 10.7 | 183 | CC(C)(C)OC[C@H](NC(=O)c1ccc(-c2ccnc(C(=O)NC3CC3)c2)cc1)C(=O)Nc1ccc(Cl)c(C(F)(F)F)c1 | – | 84 | 62 | 22.5 | 0
15 | 0.8 | 2.64 | 136 | CC(=O)Nc1cc(-c2ccc(C(=O)N[C@@H](CO)C(=O)Nc3ccc(Cl)c(C(F)(F)F)c3)cc2)ccn1 | 58.8 | 91 | 72 | – | –
16 | 0.27 | 1.27 | 105 | CC(C)(C)OC[C@H](NC(=O)c1cccc(-c2ccc(N)nc2)c1)C(=O)Nc1ccc(Cl)c(C(F)(F)F)c1 | -5 | 96 | 100 | – | –
17 | 4.44 | 3.12 | 303 | CC(C)(C)OC[C@H](NC(=O)c1ccc(-c2ccnc(NC(=O)C(C)(C)C)c2)cc1)C(=O)Nc1ccc(Cl)c(C(F)(F)F)c1 | -3.86 | 90 | 63 | – | –
18 | 33 | 8.11 | 132 | CCN(CC)C(=O)c1cncc(-c2cccc(C(=O)N[C@@H](COC(C)(C)C)C(=O)Nc3ccc(Cl)c(C(F)(F)F)c3)c2)c1 | 58.4 | 100 | 84 | – | –
19 | 6.69 | 2.66 | 148 | CCN(CC)C(=O)c1cncc(-c2cccc(C(=O)N[C@H](C(=O)Nc3ccc(Cl)c(C(F)(F)F)c3)C(C)(C)C)c2)c1 | 50.8 | 100 | 55 | – | –
20 | 4.5 | 10.2 | 185 | CCN(CC)C(=O)c1cncc(-c2ccc(C(=O)N[C@H](C(=O)Nc3ccc(Cl)c(C(F)(F)F)c3)C(C)(C)C)cc2)c1 | 42.8 | 97 | 56 | – | –
21 | 0.93 | 1.33 | 217 | CS(=O)(=O)Nc1ccc(-c2cccc(C(=O)N[C@@H](CO)C(=O)Nc3ccc(Cl)c(C(F)(F)F)c3)c2)cn1 | 62.8 | 94 | 83 | – | –
22 | 15.5 | 2.5 | 128 | CC(C)(C)OC[C@H](NC(=O)c1ccc(-c2cncc(C(=O)NC3CC3)c2)cc1)C(=O)Nc1ccc(Cl)c(C(F)(F)F)c1 | 69.7 | 84 | 79 | – | –
23 | 56 | 19.4 | 723 | CC(=O)Nc1ccc(-c2cccc(C(=O)N[C@@H](COC(C)(C)C)C(=O)Nc3ccc(Cl)c(C(F)(F)F)c3)c2)cn1 | 77.1 | 98 | 64 | – | –
24 | 9.3 | 8.86 | 608 | CC(C)(C)OC[C@H](NC(=O)c1cccc(-c2cncc(C(=O)NC3CC3)c2)c1)C(=O)Nc1ccc(Cl)c(C(F)(F)F)c1 | – | 95 | 69 | 94.1 | 1.93
25 | 3.75 | – | 204 | CC(C)(C)OC[C@H](NC(=O)c1cccc(-c2ccc(NC(=O)C3CC3)nc2)c1)C(=O)Nc1ccc(Cl)c(C(F)(F)F)c1 | -4.27 | 92 | 74 | – | –
